# Experimental data published in article PMC3651166, “Differential Cytotoxic Activity of a Novel Palladium-Based Compound on Prostate Cell Lines, Primary Prostate Epithelial Cells and Prostate Stem Cells” (PLoS ONE, 2013).
# Tests used:
# [1] = test system: LC3-II; assay: Western blotting and immunofluorescence for autophagy, primary cells; format: cell-based, human; conditions: all primary cells
# Method: γH2AX staining: Cells were seeded onto 8-well collagen I-coated chamber slides. […] After blocking of non-specific binding with 2% BSA in PBS with 1% goat serum for 1 hour at RT, primary antibody (anti-phospho-histone H2A.X (Ser139), clone JBW301, Millipore, Cat no. 05–636) at 1∶1000 dilution was added in 3% BSA in PBS at 4°C overnight followed by three washes in 0.5% BSA in PBS with 0.175% Tween 20. Following incubation with secondary antibody (Goat anti-mouse Alexa Fluor 568, Invitrogen, Cat no. A-11004) at 1∶1000 dilution for 45 min in 3% BSA in PBS and three more washes in the same washing buffer, the slides were mounted using Vectashield with DAPI (Vector Laboratories, Cat no. H-1200). LC3-B staining: Cells were treated as above then fixed with 4% paraformaldehyde, followed by an incubation in 0.3% Triton X-100. After blocking with 10% normal goat serum, cells were incubated in anti-LC3B 1∶200 (Ab51520, abcam) diluted in 0.1% Triton X-100 in PBS. Secondary antibody was Alexa Fluor 568 goat anti-rabbit IgG 1∶1000 (Invitrogen A11011).
# [2] = test system: PNT2-C2, BPH-1, P4E6, PC-3 and LNCaP; assay: Flow cytometry cell cycle analysis, cell lines; format: cell-based, human; conditions: PNT2-C2, PC3 and LNCaP cell lines, 48 h post-treatment
# Method: (§1) Following drug treatment, floating cells in the media were pooled with adherent cells, which were collected by trypsinisation. Following centrifugation cells were resuspended in 0.5 ml PBS. Cells were fixed in 2 ml ice cold 70% ethanol, which was added in a dropwise fashion while vortexing. Cells were incubated on ice for 30 min then washed in 5 ml PBS and resuspended in 0.4 ml PBS. Following storage at 4°C overnight, 50 µl of RNAse (1 mg/ml) and 50 µl of propidium iodide (1 mg/ml) were added to the cells. Following incubation at 37°C for 30 min the cells were analysed for 2N and 4N DNA content on a flow cytometer (Cyan ADP Analyser, Beckman Coulter).
# [3] = test system: primary prostate epithelial cells; assay: Flow cytometry cell cycle analysis, primary cells; format: cell-based, human; conditions: primary prostate epithelial cells, 48 h post-treatment
# Method: as §1
# [4] = test system: LC3-II; assay: Western blotting for autophagy, cell lines; format: cell-based, human; conditions: BPH-1, PNT2-C2 and P4E6 cells
# Method: (§2) Following drug treatment, cell lysates were harvested using Cytobuster Protein Extraction Reagent (71009, EMD Millipore, Darmstadt, Germany) with protease inhibitors (cOmplete, EDTA-free Protease Inhibitor Cocktail Tablets, Roche Applied Science, UK). 20 µg of protein extract were loaded on 12% SDS-PAGE gels and wet-transferred to a PVDF membrane. Antibodies used include: monoclonal anti-β-actin 1∶5000 (A5316, Sigma-Aldrich), anti-LC3B 1∶3000 (Ab51520, abcam), cleaved caspase-3 (Asp175) 1∶1000 (9661S, Cell Signaling Technology) and secondary antibodies were Rabbit anti-mouse-HRP 1∶10000 (P0260, Dako) and anti-rabbit IgG HRP-linked 1∶5000 (Cell Signaling Technology Inc. 7074S). Kaleidoscope protein marker was run on each gel (161-0324, Bio-Rad).
# [5] = test system: cleaved caspase-3; assay: Western blotting for apoptosis, cell lines; format: cell-based, human; conditions: BPH-1, PNT2-C2 and P4E6 cells
# Method: as §2
# [6] = test system: stem cells (SCs), transit-amplifying cells (TAs) and committed basal cells (CBs); assay: ATP viability assay on fractionated primary cells; format: cell-based; conditions: 25 µM, ATP assay, not statistically significant
# Method: Epithelial cells from human tumour or BPH materials were cultured for several weeks and the cells treated at very low passages. The cultured basal cell population were trypsinized, resuspended in SCM and then plated on BSA-blocked collagen I-coated plates. […] The cells that attached to substratum were trypsinised, resuspended in MACs buffer and incubated with CD133-microbeads (Cat no. 130-050-801, Miltenyi Biotec Inc., Auburn, CA, USA). MACs MS columns (Cat no. 130-042-201, Miltenyi Biotec Inc., Auburn, CA, USA) were used to select the CD133^+ and CD133^− cells. Finally, the three cell populations were obtained: stem cells (SCs) - α2β1integrin^hi/CD133^+, transit-amplifying cells (TAs) - α2β1integrin^hi/CD133^− and committed basal cells (CBs) - α2β1integrin^lo.
# This assay was employed for the bioluminescent determination of the adenosine 5′-triphosphate (ATP) released from fractionated living cells (cancer stem cells, transit amplifying cells and committed basal cells). As ATP is rapidly degraded in dead cells, high intracellular levels provide a selective assay for living cells. The ATP-bioluminescent somatic cell assay kit (FLASC, Sigma-Aldrich, Saint Louis, MO, USA) was used with protocol modifications. Briefly, 50–500 cells per well were seeded in a collagen-coated 96 well plate in triplicate. After treating cells for 72 h, 150 µL of medium was removed from each well. 50 µL of cell extraction reagent was added into each original well. Following 20 min incubation at RT, 50 µL of cell extract was transferred to a white 96-well plate. Finally, 50 µL of ATP assay mix solution was added into the wells and luminescence was read using a plate reader (PolarStar Optima, BMG Labtech, UK). Percent viability was calculated using the formula (% Viability = [(Sample RLU/Control RLU)]x100 where RLU refers to relative light units.
# [7] = test system: breast cancer cells; set-up: method as in PMID 21885165; conditions: in vitro and in vivo; cited from earlier work
Structure (SMILES),LC3-II (autophagy) [1],cell cycle effect [2],cell cycle effect [3],LC3-II expression (autophagy) [4],cleaved caspase-3 (apoptosis) [5],viability of SCs versus TA and CB cells after treatment [6],anti-growth activity [7]
"N.N.[Cl][Pt][Cl] [Cisplatin, reference compound]",no significant change in LC3-I or LC3-II levels,S phase arrest,S phase arrest,did not significantly change levels of LC3-I and LC3-II,clear induction of cleaved caspase-3,–,–
"COc1cc([C@@H]2c3cc4c(cc3[C@@H](O[C@@H]3O[C@@H]5CO[C@@H](C)O[C@H]5[C@H](O)[C@H]3O)[C@H]3COC(=O)[C@H]23)OCO4)cc(OC)c1O [Etoposide, reference compound]",–,S phase arrest,S phase arrest,did not significantly change levels of LC3-I and LC3-II,clear induction of cleaved caspase-3,SCs appeared to have increased viability compared to TA and CB cells,–
O.O.O.O.O=C1[N-]S(=O)(=O)c2ccccc21.O=C1c2ccccc2S(=O)(=O)[N]1[Pd+].c1ccc(-c2cccc(-c3ccccn3)n2)nc1 [[Pd(sac)(terpy)](sac)·4 H2O],–,–,–,–,–,–,powerful anti-growth activity
